Among the data in patent US10787435B2, “ASK1 inhibitor and preparation method and use thereof” (FUJIAN COSUNTER PHARMACEUTICAL CO., LTD., priority 2017, dated 2020) are IC50, Exposure and bioavailability values, retold here.

A value given as a limit tells only on which side of the number the result lay.

Data set [1] has as its target ASK1/MAP3K5 (Homo sapiens (Human), UniProt Q99683). The data set is described as follows: Evaluation of in vitro enzyme activity (33P-ATP radiometric kinase assay, MBP substrate). In kind it is biochemical. Conditions: recombinant human full length GST-tagged ASK1 20 nM, MBP 20 μM. As for the experimental part:
Example 1: Evaluation of In Vitro Enzyme Activity
Base Reaction Buffer: 20 mM Hepes (pH 7.5), 10 mM MgCl2, 1 mM EGTA, 0.02% Brij35, 0.02 mg/ml BSA, 0.1 mM Na3VO4, 2 mM DTT, 1% DMSO
The test compound was formulated into a 10 mM stock solution in DMSO, which was diluted into 10 concentrations in 3-fold degression, and placed in a 384-well plate (Cyclic Olefin Copolymer LDV Echo®).
Kinase Name: ASK1/MAP3K5 (Invitrogen, Carlsbad, Calif.)
Type: Recombinant Human Full Length Protein, GST-tagged
Final concentration of the enzyme: 20 nM
Substrate: Myelin basic protein, MBP (Active Motif, Carlsbad, Calif.)
Final concentration of the substrate: 20 μM
1. The substrate was dissolved in a freshly prepared base reaction buffer.
2. A desired coenzyme was added to the above substrate solution.
3. The kinase was added to the substrate solution and mixed slowly.
4. The solution of the test compound in DMSO was added to the kinase reaction solution and incubated at room temperature for 20 minutes.
5. ^33P-ATP (specific activity of 10 μCi/μl) was added to the reaction solution to initiate the reaction.
6. Incubated at room temperature for 2 hours.
7. A small portion of the reactants was placed onto a P-81 ion exchange filter paper.
8. The filter paper was washed three times with 0.75% […] to wash off the unbound phosphate, and then the filter paper was dried.
9. The radioactivity remaining on the filter paper was determined.
10. Kinase activity data was expressed as the ratio of the kinase activity remaining in the test sample to the kinase activity in the vehicle (DMSO).
11. IC50 values and curve fits was obtained with Prism (GraphPad software).

Data set [2] is described as follows: Studies on pharmacokinetic properties in mice (plasma concentration by LC-MS/MS). In kind it is in vivo. The following applies: C57BL/6 male mice, dose not stated; for Exposure: intravenous or oral administration; for bioavailability: mouse, po, intragastric vs tail vein. As for the experimental part: Example 2: Studies on Pharmacokinetic Properties
C57BL/6 male mice were used as subject animals in the study. The concentration of the drug in the plasma of mice injected intravenously or administrated orally with the test compound was quantified at different time points by using a LC/MS/MS method to evaluate the pharmacokinetic characteristics of the test drug in mice.
A clear solution of the test compound was injected into C57BL/6 mice (overnight-fasted, 7-10 weeks old) via the tail vein, and the test compound was intragastrically administered to C57BL/6 mice (overnight-fasted, 7-10 weeks old). Approximately 30 μL of blood was collected from each animal via the jugular vein or tail vein at 0.0833, 0.25, 0.5, 1, 2, 4, 6, 8 and 24 hours after administration, and placed in an anticoagulant tube supplemented with EDTA-K2. Centrifuged at 3000 g at 4° C. for 15 min, and the plasma was collected. The plasma concentration was determined by LC-MS/MS. The pharmacokinetic parameters were calculated by using the non-compartment model and linear logarithmic trapezoidal method using the pharmacokinetic software WinNonlin™ Version 6.3 (Pharsight, Mountain View, Calif.).

ASK1/MAP3K5, sequence (Q99683 whole entry): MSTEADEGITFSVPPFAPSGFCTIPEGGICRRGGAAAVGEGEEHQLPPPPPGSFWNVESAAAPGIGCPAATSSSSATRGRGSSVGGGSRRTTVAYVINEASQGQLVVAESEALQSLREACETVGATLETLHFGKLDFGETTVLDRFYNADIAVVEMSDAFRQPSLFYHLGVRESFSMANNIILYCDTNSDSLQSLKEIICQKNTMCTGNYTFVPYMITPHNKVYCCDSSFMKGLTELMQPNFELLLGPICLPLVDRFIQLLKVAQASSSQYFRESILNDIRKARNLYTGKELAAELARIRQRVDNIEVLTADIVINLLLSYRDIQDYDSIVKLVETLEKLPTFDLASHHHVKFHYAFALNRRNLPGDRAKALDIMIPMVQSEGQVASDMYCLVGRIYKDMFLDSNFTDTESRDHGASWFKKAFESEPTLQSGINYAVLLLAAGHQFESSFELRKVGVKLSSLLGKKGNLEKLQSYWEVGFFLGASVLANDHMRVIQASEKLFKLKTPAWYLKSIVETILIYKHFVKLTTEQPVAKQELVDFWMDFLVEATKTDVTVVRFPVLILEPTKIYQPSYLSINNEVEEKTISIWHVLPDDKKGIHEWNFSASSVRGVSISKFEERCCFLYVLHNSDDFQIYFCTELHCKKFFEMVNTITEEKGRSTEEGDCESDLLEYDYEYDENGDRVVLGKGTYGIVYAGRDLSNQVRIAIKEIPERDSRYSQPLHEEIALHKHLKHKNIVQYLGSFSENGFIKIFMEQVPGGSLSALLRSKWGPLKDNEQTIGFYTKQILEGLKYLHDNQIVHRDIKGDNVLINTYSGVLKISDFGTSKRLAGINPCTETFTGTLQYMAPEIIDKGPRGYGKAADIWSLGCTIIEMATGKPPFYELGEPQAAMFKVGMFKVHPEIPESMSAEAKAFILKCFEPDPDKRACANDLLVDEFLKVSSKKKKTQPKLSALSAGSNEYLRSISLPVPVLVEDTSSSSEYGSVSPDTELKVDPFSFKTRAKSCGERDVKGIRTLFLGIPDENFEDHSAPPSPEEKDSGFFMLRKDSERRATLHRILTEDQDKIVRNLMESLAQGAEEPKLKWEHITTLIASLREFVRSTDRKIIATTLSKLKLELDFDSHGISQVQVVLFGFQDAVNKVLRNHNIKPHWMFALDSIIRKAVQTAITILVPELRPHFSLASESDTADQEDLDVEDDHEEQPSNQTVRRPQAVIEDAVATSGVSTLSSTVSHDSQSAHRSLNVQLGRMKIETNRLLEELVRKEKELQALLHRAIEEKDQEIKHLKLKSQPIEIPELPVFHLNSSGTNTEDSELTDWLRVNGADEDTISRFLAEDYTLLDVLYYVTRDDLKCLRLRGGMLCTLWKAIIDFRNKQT

For `Cc1cc2c(F)cn(-c3cccc(-c4nncn4C(C)C)n3)c(=O)c2cc1-n1cnc(C2CC2)c1` [Example 007], the IC50 in data set [1] is at most 50 nM. In addition, in data set [2], the Exposure turned out to be 29.007 µM·h and the bioavailability was determined as 123%.

Turning to `COc1ccc(-c2cc3ncn(-c4cccc(-c5nncn5C(C)C)n4)c(=O)c3cc2-n2cnc(C3CC3)c2)cn1` [Example 033], the IC50 in data set [1] was at most 50 nM. Further, in data set [2], the Exposure came to 20.356 µM·h and the bioavailability came to 148%.

Regarding `Cc1cc2ncn(-c3cccc(-c4nncn4C(C)C)n3)c(=O)c2cc1-n1cnc(C2CC2)c1` [Example 011], the IC50 in data set [1] is at most 50 nM. Further, in data set [2], the Exposure was 31.832 µM·h and the bioavailability turned out to be 108%.

Usually IC50 stands for the concentration that gives 50% inhibition.
